How the values were obtained:
Type in all cases: cell-based
[1] = test system: NB16 cells; experiment: Relative intracellular metabolite levels by LC/MS
Protocol: (§1) Metabolic analysis. For the metabolomics and isotope tracing analysis in vitro, cells were washed with cold PBS, lysed in 80% Ultra LC-MS acetonitrile on ice for 15 minutes, centrifuged at 20,000 g for 10 minutes at 4° C., and supernatant was subjected to mass spectrometry analysis. For the metabolomics analysis in vivo, 10-20 mg tissue were cut off on ice, rinsed if necessary to remove blood, and place in a 2 ml round-bottom cryovial. The tissues were homogenized by 3 times 10 s on/off bursts homogenization in 1 ml 80% methanol on dry ice. Transfer the homogenate to an Eppendorf tube and keep on liquid nitrogen while processing the remaining samples. Incubated all the samples in −80° C. for 30 minutes. After incubation, vortexed the samples for 5 seconds. Then centrifuged the samples at 20,000 g for 10 minutes at 4° C., and supernatant was subjected to mass spectrometry analysis. Resuspend the remaining cellular pellet in 100 ul protein lysis buffer and determine the protein concentration. Then calculate the total protein content per sample.
(§2) Liquid chromatography was performed using an Agilent 1290 Infinity LC system (Agilent, Santa Clara, US) coupled to a Q-TOF 6545 mass spectrometer (Agilent, Santa Clara, US). A hydrophilic interaction chromatography method (HILIC) with a BEH amide column (100×2.1 mm i.d., 1.7 μm; Waters) was used for compound separation at 35° C. with a flow rate of 0.3 ml/minutes. The mobile phase A consisted of 25 mM ammonium acetate and 25 mM ammonium hydroxide in water and mobile phase B was acetonitrile. The gradient elution was 0-1 minute, 85% B; 1-12 minutes, 85% B→65% B; 12-12.2 minutes, 65% B→40% B; 12.2-15 minutes, 40% B. After the gradient, the column was re-equilibrated at 85% B for 5 minutes. The overall runtime was 20 minutes, and the injection volume was 5 μL. Agilent Q-TOF was operated in negative mode and the relevant parameters were as listed: ion spray voltage, 3500 V; nozzle voltage, 1000 V; fragmentor voltage, 125 V; drying gas flow, 11 L/minutes; capillary temperature, 325° C., drying gas temperature, 350° C.; and nebulizer pressure, 40 psi. A full scan range was set at 50 to 1600 (m/z). The reference mass was 119.0363 and 980.0164. The acquisition rate was 2 spectra/s. Targeted analysis, isotopologues extraction and natural isotope abundance correction were performed by Agilent Profinder B.10.00 (Agilent Technologies).

[2] = test system: SK-N-BE(2) cells; experiment: Relative intracellular metabolite levels by LC/MS
Protocol: as §1, §2

[3] = test system: NB16 cells; experiment: Neurite outgrowth and β-tubulin III immunofluorescence (neuron differentiation); settings: 72-96 h
Protocol: (§3) Neurite outgrowth assay. The quantification of neurite was performed as described before. Shortly, 1×10^4 SK-N-BE(2) and NB16 cells were plated in a 12 well-plate per well. After overnight incubation, cells were treated with various conditions as indicated for 72 h. Then, images were taken by a Leica Florescent Microscope DMi8 in phase contrast mode (20× magnification). The lengths of the neurites were traced and quantified using the ImageJ plugin NeuronJ. For each sample, total neurite length was measured and normalized to the number of cell bodies, mean value from 3 biological replicates was reported. Immunofluorescence staining. SK-N-BE(2) and NB16 cells were seeded into 8-chamber slides (Thermo Fisher Scientific, 154534) with a density of 6×10^3 cells/well overnight and treated with indicated treatment for 72 h. Cells were fixed with 4% PFA in PBS with 0.1% Tween-20 at RT for 30 minutes followed by permeabilization with 0.1% Triton X-100 in PBS at room temperature for 10 min. The cells were washed with PBS twice and blocked with 2.5% horse serum in PBS at RT for 1 h. Then, cells were subjected to immunofluorescence staining with primary antibody at 4° C. overnight. After two washes with PBS, cells were incubated with Alexa Fluor 594-conjugated anti-rabbit secondary antibody (Life Technologies) at RT for 1 h followed by staining with DAPI (Vector Laboratories, H-1800-2). Images were acquired with Leica DMi8 microscope.

[4] = test system: SK-N-BE(2) cells; experiment: as above; settings: 72-96 h
Protocol: as §3

[5] = test system: HIF2α; experiment: Western blot of nuclear HIF2α under normoxia or hypoxia; settings: SK-N-BE(2), 2 or 4 μM NEN, 3.5 mM α-KG
Protocol: Protein extraction and immunoblot. […] Cell lysate was centrifuged at 3000 rpm for 3 min at 4° C. The supernatant containing cytosolic proteins was transferred to a different tube. […] Then the solution was sonicated at 4° C. for 6 cycles (1 cycle=30 s sonication and 30 s cooldown with “High” energy intensity) using a Bioruptor® Plus sonication (Diagenode, UCD-300). After sonication, the solution was centrifuged at 15,000 rpm for 10 minutes. The supernatant was kept as nuclear extraction. […] After blocking in 5% non-fat milk for 30 minutes at room temperature (RT), the primary antibody was added for incubation overnight at 4° C.

[6] = SK-N-BE(2) cells, 1 μM NEN 2 h or 5 h vs DMSO
[7] = SK-N-BE(2) cells, 1 μM NEN 5 h vs DMSO
[8] = SK-N-BE(2), 1 μM NEN under hypoxia 3 h or 6 h

O=C(Nc1ccc([N+](=O)[O-])cc1Cl)c1cc(Cl)ccc1O [NEN, 5-chloro-N-(2-chloro-4-nitrophenyl)-2-hydroxybenzamide compound with 2-aminoethanol (1:1)]
aspartate level ([1]; 1 μM NEN 2 h or 5 h vs DMSO): accumulated | citrate level ([1]; 1 μM NEN 2 h or 5 h vs DMSO): not affected | fumarate level ([1]; 1 μM NEN 2 h or 5 h vs DMSO): no significant increase | intracellular α-KG levels ([1]; 1 μM NEN 2 h or 5 h vs DMSO): increased significantly | malate level ([1]; 1 μM NEN 2 h or 5 h vs DMSO): no significant increase | succinate level ([1]; 1 μM NEN 2 h or 5 h vs DMSO): accumulated | intracellular glutamate level ([1]; 1 μM NEN 5 h vs DMSO): significantly reduced | intracellular glutamine level ([1]; 1 μM NEN 5 h vs DMSO): significantly reduced | aspartate level [2, 6]: accumulated | citrate level [2, 6]: not affected | fumarate level [2, 6]: no significant increase | intracellular α-KG levels [2, 6]: increased significantly | malate level [2, 6]: no significant increase | succinate level [2, 6]: accumulated | intracellular glutamate level [2, 7]: significantly reduced | intracellular glutamine level [2, 7]: significantly reduced | 2-HG levels under hypoxia [2, 8]: significantly reduced | α-KG level under hypoxia [2, 8]: partially restored | neuron differentiation morphology, NEN combined with RA vs NEN alone ([3]; NB16, 1 μM NEN + 1 μM 13-cis-RA): more profound | neuron differentiation morphology (neurite length, β-tubulin III staining) ([3]; NB16, 1 μM NEN alone): induced | neuron differentiation morphology, NEN combined with RA vs NEN alone ([4]; 1 μM NEN + 1 μM 13-cis-RA): more profound | neuron differentiation morphology (neurite length, β-tubulin III staining) ([4]; 1 μM NEN alone): induced | inhibition of the accumulation of HIF2a protein [5]: inhibited
